Reference: patent US9102623B2, “Pyridinecarboxamides, useful-plant-protecting composition comprising them and processes for their preparation and their use” (Bayer Cropscience AG, priority 2007, dated 2015)

How the values were obtained:
Format in all cases: in vivo
[1] = test system: corn; test: Pre-emergence safener action in corn with the herbicide isoxaflutol; conditions: greenhouse, visual scoring after 3 to 4 weeks
Text: (§1) The damage to the plants is scored visually using a scale of 0-100%, in comparison to control plants:
(§2) 0%=no noticeable effect compared to the untreated plant
(§3) 100%=the treated plants dies.
Seeds or rhizome pieces of monocotyledonous and dicotyledonous weed plants and crop plants were placed in sandy loam soil in plastic pots and covered with soil. The herbicide/safener active compound combinations according to the invention, formulated as suspension emulsion concentrates, and in parallel tests the individual active compounds formulated in a corresponding manner, were then, at various dosages at a water application rate of 600 to 800 l/ha (converted), applied to the surface of the covering soil.
After the treatment, the pots were placed in the greenhouse and kept under good growth conditions for the weeds and the crop plants. Visual scoring of the plant damage or emergence damage was carried out after the test plants had emerged after a test period of 3 to 4 weeks, in comparison to untreated controls.

[2] = test system: barley; test: Post-emergence safener action in barley with the herbicide mesosulfuron-methyl; conditions: greenhouse, visual scoring of damage
Text: as §1, §2, §3
(§4) Seeds or rhizome pieces of monocotyledonous and dicotyledonous harmful plants and crop plants are placed in sandy loam soil in plastic pots, covered with soil and cultivated in the greenhouse under good growth conditions. Alternatively, harmful plants encountered in paddy rice cultivation are cultivated in pots in which the surface of the soil is covered by up to 2 cm of water. Three weeks after sowing, the test plants are treated at the three-leaf stage. The herbicide/safener active compound combinations according to the invention, formulated as emulsion concentrates, and in parallel tests the individual active compounds formulated in a corresponding manner, are sprayed at various dosages at a water application rate of […] (converted) onto the green parts of the plants, and, after the test plants were left to stand in the greenhouse for about 2 to 3 weeks under optimum growth conditions, the effect of the preparations is scored visually in comparison to untreated controls. In the case of rice or harmful plants encountered in the cultivation of rice, the active compounds are also added directly to the irrigation water (application analogously to the so-called granule application) or sprayed onto the plants and into the irrigation water. […]

[3] = test system: corn; test: Post-emergence safener action in corn with the herbicide tembotrione; conditions: greenhouse, visual scoring of damage
Text: as §1, §2, §3, §4

## CC(C)NC(=O)c1ccc(C(F)F)[nH]c1=O [Compound 232, 6-Difluoromethyl-N-isopropyl-2-oxo-1,2-dihydropyridine-3-carboxamide]
[1]
  safener action in combination with the herbicide isoxaflutol: good safener action

## O=C(NCC(F)(F)F)c1ccc(C(F)(F)Cl)[nH]c1=O [Compound 140]
[2]
  safener action for the herbicide mesosulfuron-methyl: good safener action
[3]
  safener action for the herbicide tembotrione: good safener action

## NC(=O)c1ccc(C(F)(F)Cl)[nH]c1=O [Compound 114]
[2]
  safener action for the herbicide mesosulfuron-methyl: good safener action
[3]
  safener action for the herbicide tembotrione: good safener action

## CC(C)NC(=O)c1ccc(C(F)(F)C(F)(F)C(F)(F)F)[nH]c1=O [Compound 1599]
[2]
  safener action for the herbicide mesosulfuron-methyl: good safener action
[3]
  safener action for the herbicide tembotrione: good safener action

## CCCNC(=O)c1cc(Br)c(C(F)(F)Cl)[nH]c1=O [Compound 1026]
[2]
  safener action for the herbicide mesosulfuron-methyl: good safener action
[3]
  safener action for the herbicide tembotrione: good safener action

## CCONC(=O)c1ccc(C(F)(F)F)[nH]c1=O [Compound 79]
[2]
  safener action for the herbicide mesosulfuron-methyl: good safener action
[3]
  safener action for the herbicide tembotrione: good safener action

## CN(C)/C=N/C(=O)c1ccc(C(F)(F)F)[nH]c1=O [Compound 105, N-[(Dimethylamino)methylene]-2-oxo-6-(trifluoromethyl)-1,2-dihydropyridine-3-carboxamide]
[2]
  safener action for the herbicide mesosulfuron-methyl: good safener action
[3]
  safener action for the herbicide tembotrione: good safener action

## O=C(NC1CC1)c1ccc(C(F)(F)C(F)(F)C(F)(F)F)[nH]c1=O [Compound 1600]
[2]
  safener action for the herbicide mesosulfuron-methyl: good safener action
[3]
  safener action for the herbicide tembotrione: good safener action

## C=CCNC(=O)c1ccc(C(F)(F)Cl)[nH]c1=O [Compound 148]
[2]
  safener action for the herbicide mesosulfuron-methyl: good safener action
[3]
  safener action for the herbicide tembotrione: good safener action

## CCNC(=O)c1cc(Cl)c(C(F)(F)F)[nH]c1=O [Compound 457]
[2]
  safener action for the herbicide mesosulfuron-methyl: good safener action
[3]
  safener action for the herbicide tembotrione: good safener action

## C#CCNC(=O)c1ccc(C(F)(F)Cl)[nH]c1=O [Compound 153]
[2]
  safener action for the herbicide mesosulfuron-methyl: good safener action
[3]
  safener action for the herbicide tembotrione: good safener action

## C#CCNC(=O)c1ccc(C(F)(F)C(F)(F)F)[nH]c1=O [Compound 380]
[1]
  safener action in combination with the herbicide isoxaflutol: good safener action

## C=CCN(CC=C)C(=O)c1ccc(C(F)(F)F)[nH]c1=O [Compound 36]
[2]
  safener action for the herbicide mesosulfuron-methyl: good safener action
[3]
  safener action for the herbicide tembotrione: good safener action

## CCCC(C)NC(=O)c1ccc(C(F)F)[nH]c1=O (centres unmarked) [Compound 271]
[1]
  safener action in combination with the herbicide isoxaflutol: good safener action

## C=CCNC(=O)c1cc(Cl)c(C(F)(F)F)[nH]c1=O [Compound 489]
[2]
  safener action for the herbicide mesosulfuron-methyl: good safener action
[3]
  safener action for the herbicide tembotrione: good safener action

## O=C(c1ccc(C(F)(F)Cl)[nH]c1=O)N1CCCC1 [Compound 217]
[1]
  safener action in combination with the herbicide isoxaflutol: good safener action

## C=CCNC(=O)c1ccc(C(F)(F)F)[nH]c1=O [Compound 34]
[2]
  safener action for the herbicide mesosulfuron-methyl: good safener action
[3]
  safener action for the herbicide tembotrione: good safener action

## CCCNC(=O)c1ccc(C(F)(F)C(F)(F)C(F)(F)F)[nH]c1=O [Compound 1598, 6-(Heptafluoropropyl)-2-oxo-N-propyl-1,2-dihydropyridine-3-carboxamide]
[2]
  safener action for the herbicide mesosulfuron-methyl: good safener action
[3]
  safener action for the herbicide tembotrione: good safener action

## COCC(C)NC(=O)c1ccc(C(F)(F)Cl)[nH]c1=O (centres unmarked) [Compound 178]
[2]
  safener action for the herbicide mesosulfuron-methyl: good safener action
[3]
  safener action for the herbicide tembotrione: good safener action

## CCOC(CNC(=O)c1ccc(C(F)(F)Cl)[nH]c1=O)OCC [Compound 169]
[2]
  safener action for the herbicide mesosulfuron-methyl: good safener action
[3]
  safener action for the herbicide tembotrione: good safener action

## CC(C)NC(=O)c1cc(Br)c(C(F)(F)F)[nH]c1=O [Compound 913]
[2]
  safener action for the herbicide mesosulfuron-methyl: good safener action
[3]
  safener action for the herbicide tembotrione: good safener action

## C=CCNC(=O)c1cc(Br)c(C(F)(F)F)[nH]c1=O [Compound 943, N-Allyl-5-bromo-2-oxo-6-(trifluoromethyl)-1,2-dihydropyridine-3-carboxamide]
[2]
  safener action for the herbicide mesosulfuron-methyl: good safener action
[3]
  safener action for the herbicide tembotrione: good safener action

## CCC(C)NC(=O)c1cc(Cl)c(C(F)(F)F)[nH]c1=O (centres unmarked) [Compound 496]
[2]
  safener action for the herbicide mesosulfuron-methyl: good safener action
[3]
  safener action for the herbicide tembotrione: good safener action

## COC(=O)CN(C)C(=O)c1ccc(C(F)(F)F)[nH]c1=O [Compound 72]
[1]
  safener action in combination with the herbicide isoxaflutol: good safener action

## CCNC(=O)c1ccc(C(F)(F)F)[nH]c1=O [Compound 2]
[2]
  safener action for the herbicide mesosulfuron-methyl: good safener action
[1]
  safener action in combination with the herbicide isoxaflutol: good safener action

## CC(C)(C)NC(=O)c1ccc(C(F)(F)Cl)[nH]c1=O [Compound 122]
[1]
  safener action in combination with the herbicide isoxaflutol: good safener action

## O=C(c1ccc(C(F)(F)Cl)[nH]c1=O)N1CCOCC1 [Compound 214]
[2]
  safener action for the herbicide mesosulfuron-methyl: good safener action
[3]
  safener action for the herbicide tembotrione: good safener action

## C#CCNC(=O)c1ccc(C(F)(F)F)[nH]c1=O [Compound 39]
[1]
  safener action in combination with the herbicide isoxaflutol: good safener action

## CC(C)CCNC(=O)c1ccc(C(F)(F)Cl)[nH]c1=O [Compound 146]
[2]
  safener action for the herbicide mesosulfuron-methyl: good safener action
[3]
  safener action for the herbicide tembotrione: good safener action

## CN(C)C(=O)c1ccc(C(F)(F)F)[nH]c1=O [Compound 9]
[2]
  safener action for the herbicide mesosulfuron-methyl: good safener action
[3]
  safener action for the herbicide tembotrione: good safener action

## COCCCNC(=O)c1ccc(C(F)(F)F)[nH]c1=O [Compound 66]
[2]
  safener action for the herbicide mesosulfuron-methyl: good safener action
[3]
  safener action for the herbicide tembotrione: good safener action

## CCN(C)C(=O)c1ccc(C(F)(F)F)[nH]c1=O [Compound 10]
[2]
  safener action for the herbicide mesosulfuron-methyl: good safener action
[3]
  safener action for the herbicide tembotrione: good safener action

## O=C(NC1CCCCC1)c1ccc(C(F)(F)F)[nH]c1=O [Compound 19]
[1]
  safener action in combination with the herbicide isoxaflutol: good safener action

## CCN(CC)C(=O)c1ccc(C(F)(F)F)[nH]c1=O [Compound 14]
[2]
  safener action for the herbicide mesosulfuron-methyl: good safener action
[3]
  safener action for the herbicide tembotrione: good safener action

## CCCCNC(=O)c1ccc(C(F)(F)F)[nH]c1=O [Compound 6]
[3]
  safener action for the herbicide tembotrione: good safener action

## CCCC(C)NC(=O)c1cc(Cl)c(C(F)(F)F)[nH]c1=O (centres unmarked) [Compound 498]
[2]
  safener action for the herbicide mesosulfuron-methyl: good safener action
[3]
  safener action for the herbicide tembotrione: good safener action

## CC(C)NC(=O)c1ccc(C(F)(F)C(F)(F)F)[nH]c1=O [Compound 345]
[2]
  safener action for the herbicide mesosulfuron-methyl: good safener action
[3]
  safener action for the herbicide tembotrione: good safener action

## CN(C)C(=O)c1ccc(C(F)(F)C(F)(F)C(F)(F)F)[nH]c1=O [Compound 1604]
[3]
  safener action for the herbicide tembotrione: good safener action

## CCNC(=O)c1cc(Br)c(C(F)(F)F)[nH]c1=O [Compound 911]
[2]
  safener action for the herbicide mesosulfuron-methyl: good safener action
[3]
  safener action for the herbicide tembotrione: good safener action

## COCC(C)NC(=O)c1ccc(C(F)(F)F)[nH]c1=O (centres unmarked) [Compound 64]
[2]
  safener action for the herbicide mesosulfuron-methyl: good safener action
[3]
  safener action for the herbicide tembotrione: good safener action

## NC(=O)c1cc(Br)c(C(F)(F)F)[nH]c1=O [Compound 909]
[2]
  safener action for the herbicide mesosulfuron-methyl: good safener action
[3]
  safener action for the herbicide tembotrione: good safener action

## CCCC(C)NC(=O)c1ccc(C(F)(F)F)[nH]c1=O (centres unmarked) [Compound 43]
[3]
  safener action for the herbicide tembotrione: good safener action

## O=C(NC1CCC1)c1cc(Br)c(C(F)(F)C(F)(F)C(F)(F)F)[nH]c1=O [Compound 1758]
[3]
  safener action for the herbicide tembotrione: good safener action

## CC(C)(C)CNC(=O)c1ccc(C(F)(F)C(F)(F)C(F)(F)F)[nH]c1=O [Compound 1619]
[3]
  safener action for the herbicide tembotrione: good safener action

## CCC(CC)NC(=O)c1cc(Br)c(C(F)(F)F)[nH]c1=O [Compound 960]
[2]
  safener action for the herbicide mesosulfuron-methyl: good safener action
[3]
  safener action for the herbicide tembotrione: good safener action

## CC(C)NC(=O)c1ccc(C(F)(F)Cl)[nH]c1=O [Compound 118]
[3]
  safener action for the herbicide tembotrione: good safener action

## CC(C)NC(=O)c1ccc(C(F)(F)C(F)(F)Cl)[nH]c1=O [Compound 1485]
[3]
  safener action for the herbicide tembotrione: good safener action

## COC(=O)CCNC(=O)c1ccc(C(F)(F)F)[nH]c1=O [Compound 75]
[3]
  safener action for the herbicide tembotrione: good safener action
